# Experimental data as given in the supplement of paper PMC10307832.
# Assays:
# Assay in all cases: relative viability (nuclei count vs DMSO), 5 days (fraction); higher = more cells survive
# [1] = compound: C1=CC(=CC=C1NC(=S)NNC2=C(C=C(C=C2[N+](=O)[O-])C(F)(F)F)[N+](=O)[O-])F [Kobe2602]
# Procedure, shortened: (§1)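 Viability was read as treated-well nuclei divided by vehicle-well nuclei, using the median across plates. Lung cancer cell lines in 1536-well plates were kept overnight at 37 °C, pinned with five √10-spaced library-drug doses, and after 5 days were Hoechst-stained, imaged at 4× and counted in MetaXpress. Plates passed only with control CV below 25% and at least one doubling.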
# [2] = compound: COc1cc2nccc(Oc3ccc(NC(=O)C4(C(=O)Nc5ccc(F)cc5)CC4)cc3)c2cc1OC [Cabozantinib]
# Procedure, shortened: as §1
# [3] = compound: O[C@@H](COc1cccc2ncccc12)CN1CCN([C@@H]2c3ccccc3[C@@H]3[C@H](c4ccccc42)C3(F)F)CC1 [Zosuquidar]
# Procedure, shortened: as §1
# [4] = compound: COc1cc2nccc(Oc3ccc(NC(=O)C4(C(=O)Nc5ccc(F)cc5)CC4)cc3)c2cc1OC [Cabozantinib] + C[C@@H](Oc1cc(-c2cnn(C3CCNCC3)c2)cnc1N)c1c(Cl)ccc(F)c1Cl [Crizotinib] (partner 1 µM)
# Procedure, shortened: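 Cells from lung cancer lines were seeded into 1536-well plates and, one day later, dosed by pin tool. Treatments were either a single drug or a fixed dose of an anchor drug with five library-drug doses (not always all listed) in √10 steps. After 5 days, nuclei were stained in a one-step fixation (final 0.05% Triton X-100, 1% formaldehyde, 1 ug/ml Hoechst) and counted on 4× images, and relative viability is the treated-to-vehicle nuclei ratio, as the median of duplicate plates.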
cell line,measurement,setting,value
NCI-H1944,relative viability,[1]; 0.2 µM,1
same,relative viability,[1]; 0.6325 µM,1.07
same,relative viability,[1]; 2 µM,0.899
same,relative viability,[1]; 6.325 µM,0.992
same,relative viability,[1]; 20 µM,0.987
same,relative viability,[2]; 0.02 µM,0.826
same,relative viability,[2]; 0.06325 µM,1.01
same,relative viability,[2]; 0.2 µM,0.961
same,relative viability,[2]; 0.6325 µM,1.01
same,relative viability,[2]; 2 µM,0.916
same,relative viability,[3]; 0.01 µM,0.942
same,relative viability,[3]; 0.03162 µM,0.88
same,relative viability,[3]; 0.1 µM,0.847
same,relative viability,[3]; 0.3162 µM,1.08
same,relative viability,[3]; 1 µM,0.909
same,relative viability,[4]; first compound 0.06325 µM,1.26
same,relative viability,[4]; first compound 0.2 µM,1.1
same,relative viability,[4]; first compound 0.6325 µM,1.07
same,relative viability,[4]; first compound 2 µM,1.21
NCI-H1975,relative viability,[1]; 0.2 µM,0.995
same,relative viability,[1]; 0.6325 µM,0.978
same,relative viability,[1]; 2 µM,0.852
same,relative viability,[1]; 6.325 µM,0.836
same,relative viability,[1]; 20 µM,0.905
same,relative viability,[2]; 0.02 µM,1.03
same,relative viability,[2]; 0.06325 µM,1.1
same,relative viability,[2]; 0.2 µM,0.961
same,relative viability,[2]; 0.6325 µM,0.873
same,relative viability,[2]; 2 µM,0.855
same,relative viability,[3]; 0.01 µM,0.934
same,relative viability,[3]; 0.03162 µM,0.824
same,relative viability,[3]; 0.1 µM,0.937
same,relative viability,[3]; 0.3162 µM,1.06
same,relative viability,[3]; 1 µM,0.959
same,relative viability,[4]; first compound 0.02 µM,1.09
same,relative viability,[4]; first compound 0.06325 µM,1.05
same,relative viability,[4]; first compound 0.2 µM,0.948
same,relative viability,[4]; first compound 0.6325 µM,1.09
same,relative viability,[4]; first compound 2 µM,0.83
NCI-H1993,relative viability,[1]; 0.2 µM,0.877
same,relative viability,[1]; 0.6325 µM,0.993
same,relative viability,[1]; 2 µM,0.876
same,relative viability,[1]; 6.325 µM,0.792
same,relative viability,[1]; 20 µM,0.87
same,relative viability,[2]; 0.02 µM,0.681
same,relative viability,[2]; 0.06325 µM,0.787
same,relative viability,[2]; 0.2 µM,0.584
same,relative viability,[2]; 0.6325 µM,0.734
same,relative viability,[2]; 2 µM,0.788
same,relative viability,[3]; 0.01 µM,0.925
same,relative viability,[3]; 0.03162 µM,0.879
same,relative viability,[3]; 0.1 µM,0.685
same,relative viability,[3]; 0.3162 µM,1.06
same,relative viability,[3]; 1 µM,0.826
same,relative viability,[4]; first compound 0.02 µM,0.798
same,relative viability,[4]; first compound 0.06325 µM,1.04
same,relative viability,[4]; first compound 0.2 µM,0.682
same,relative viability,[4]; first compound 0.6325 µM,0.856
same,relative viability,[4]; first compound 2 µM,0.884
NCI-H2009,relative viability,[1]; 0.2 µM,1.02
same,relative viability,[1]; 0.6325 µM,1.08
same,relative viability,[1]; 2 µM,0.966
same,relative viability,[1]; 6.325 µM,1.04
same,relative viability,[1]; 20 µM,0.99
same,relative viability,[2]; 0.02 µM,1.08
same,relative viability,[2]; 0.06325 µM,1.06
same,relative viability,[2]; 0.2 µM,1.08
same,relative viability,[2]; 0.6325 µM,1.07
same,relative viability,[2]; 2 µM,1.15
same,relative viability,[3]; 0.01 µM,1.02
same,relative viability,[3]; 0.03162 µM,0.945
same,relative viability,[3]; 0.1 µM,0.929
same,relative viability,[3]; 0.3162 µM,1.06
same,relative viability,[3]; 1 µM,0.971
same,relative viability,[4]; first compound 0.02 µM,1.11
same,relative viability,[4]; first compound 0.06325 µM,1.09
same,relative viability,[4]; first compound 0.2 µM,1.15
same,relative viability,[4]; first compound 0.6325 µM,1.09
same,relative viability,[4]; first compound 2 µM,1.04
NCI-H2023,relative viability,[1]; 0.2 µM,0.941
same,relative viability,[1]; 0.6325 µM,1.02
same,relative viability,[1]; 2 µM,0.984
same,relative viability,[1]; 6.325 µM,0.924
same,relative viability,[1]; 20 µM,0.663
same,relative viability,[2]; 0.02 µM,0.93
same,relative viability,[2]; 0.06325 µM,0.998
same,relative viability,[2]; 0.2 µM,0.803
same,relative viability,[2]; 0.6325 µM,0.78
same,relative viability,[2]; 2 µM,0.593
same,relative viability,[3]; 0.01 µM,0.949
same,relative viability,[3]; 0.03162 µM,1.03
same,relative viability,[3]; 0.1 µM,0.894
same,relative viability,[3]; 0.3162 µM,1.1
same,relative viability,[3]; 1 µM,1.05
same,relative viability,[4]; first compound 0.02 µM,0.746
same,relative viability,[4]; first compound 0.06325 µM,0.755
same,relative viability,[4]; first compound 0.2 µM,0.714
same,relative viability,[4]; first compound 0.6325 µM,0.601
same,relative viability,[4]; first compound 2 µM,0.724
NCI-H2085,relative viability,[1]; 0.2 µM,1.02
same,relative viability,[1]; 0.6325 µM,0.994
same,relative viability,[1]; 2 µM,0.959
same,relative viability,[1]; 6.325 µM,0.991
same,relative viability,[1]; 20 µM,0.96
same,relative viability,[2]; 0.02 µM,1.07
same,relative viability,[2]; 0.06325 µM,1.09
same,relative viability,[2]; 0.2 µM,0.942
same,relative viability,[2]; 0.6325 µM,1.05
same,relative viability,[2]; 2 µM,1.01
same,relative viability,[3]; 0.01 µM,0.977
same,relative viability,[3]; 0.03162 µM,0.955
same,relative viability,[3]; 0.1 µM,0.797
same,relative viability,[3]; 0.3162 µM,1
same,relative viability,[3]; 1 µM,0.959
same,relative viability,[4]; first compound 0.02 µM,0.949
same,relative viability,[4]; first compound 0.06325 µM,0.921
same,relative viability,[4]; first compound 0.2 µM,0.992
same,relative viability,[4]; first compound 0.6325 µM,0.898
same,relative viability,[4]; first compound 2 µM,0.799
NCI-H2087,relative viability,[1]; 0.2 µM,1.02
same,relative viability,[1]; 0.6325 µM,1.08
same,relative viability,[1]; 2 µM,0.995
same,relative viability,[1]; 6.325 µM,1.08
same,relative viability,[1]; 20 µM,1.13
same,relative viability,[2]; 0.02 µM,1.09
same,relative viability,[2]; 0.06325 µM,1.16
same,relative viability,[2]; 0.2 µM,1.03
same,relative viability,[2]; 0.6325 µM,0.922
same,relative viability,[2]; 2 µM,1.02
same,relative viability,[3]; 0.01 µM,1.06
same,relative viability,[3]; 0.03162 µM,0.971
same,relative viability,[3]; 0.1 µM,0.907
same,relative viability,[3]; 0.3162 µM,1.19
same,relative viability,[3]; 1 µM,1.07
same,relative viability,[4]; first compound 0.02 µM,0.95
same,relative viability,[4]; first compound 0.06325 µM,0.831
same,relative viability,[4]; first compound 0.2 µM,0.75
same,relative viability,[4]; first compound 0.6325 µM,0.871
same,relative viability,[4]; first compound 2 µM,0.99
NCI-H2126,relative viability,[1]; 0.2 µM,1.01
same,relative viability,[1]; 0.6325 µM,1.02
same,relative viability,[1]; 2 µM,0.975
same,relative viability,[1]; 6.325 µM,0.971
same,relative viability,[1]; 20 µM,0.961
same,relative viability,[2]; 0.02 µM,0.747
same,relative viability,[2]; 0.06325 µM,1.05
same,relative viability,[2]; 0.2 µM,0.991
same,relative viability,[2]; 0.6325 µM,0.99
same,relative viability,[2]; 2 µM,1.11
same,relative viability,[3]; 0.01 µM,0.96
same,relative viability,[3]; 0.03162 µM,0.996
same,relative viability,[3]; 0.1 µM,0.741
same,relative viability,[3]; 0.3162 µM,1.03
same,relative viability,[3]; 1 µM,1.03
same,relative viability,[4]; first compound 0.02 µM,1.03
same,relative viability,[4]; first compound 0.06325 µM,1.04
same,relative viability,[4]; first compound 0.2 µM,1.01
same,relative viability,[4]; first compound 0.6325 µM,1.04
same,relative viability,[4]; first compound 2 µM,1.02
NCI-H2170,relative viability,[1]; 0.2 µM,1.03
same,relative viability,[1]; 0.6325 µM,0.958
same,relative viability,[1]; 2 µM,0.974
same,relative viability,[1]; 6.325 µM,0.992
same,relative viability,[1]; 20 µM,0.871
same,relative viability,[2]; 0.02 µM,0.991
same,relative viability,[2]; 0.06325 µM,1
same,relative viability,[2]; 0.2 µM,0.864
same,relative viability,[2]; 0.6325 µM,1.02
same,relative viability,[2]; 2 µM,1.04
same,relative viability,[3]; 0.01 µM,0.989
same,relative viability,[3]; 0.03162 µM,1
same,relative viability,[3]; 0.1 µM,0.932
same,relative viability,[3]; 0.3162 µM,0.971
same,relative viability,[3]; 1 µM,0.954
same,relative viability,[4]; first compound 0.02 µM,1.33
same,relative viability,[4]; first compound 0.06325 µM,1.4
same,relative viability,[4]; first compound 0.2 µM,1.27
same,relative viability,[4]; first compound 0.6325 µM,1.15
same,relative viability,[4]; first compound 2 µM,1.19
